For this experiment, the system named is CARP-1, phospho-JNK1/2, phospho-H2AX. In words: Western blot of CARP-1, phospho-JNK1/2, γH2AX in UOK 262. The format is cell-based, human. The settings on record: 10 μM, UOK 262, WB. As for the experimental part: Logarithmically growing cells were either untreated or treated with different agents for various time periods. The cells were lysed to prepare protein extracts. IP was carried out by incubating approximately 1 mg of the protein lysate with appropriate antibodies. The immunoprecipitates were then analyzed by SDS-PAGE, followed by WB with respective, interacting protein. For Gst-pulldown, Gst-H2AX or various His-TAT-HA-tagged CARP-1 peptides were generated in Escherichia coli (E. coli) BL21 cells essentially as described by us previously. Briefly, the competent E. coli BL-21 (DE3) pLysS cells were transformed separately with various recombinant pGEX-4T-1 or pTAT-HA constructs. The transformed cells were then subjected to selection by combined presence of ampicillin and chloramphenicol; various isolates for each transformation were obtained and bacterial lysates were characterized for expression of fusion peptides. Cells from each isolate were grown in 4 mL of LB medium containing ampicillin only until the optical density (OD)600 reached 0.4–0.8. […]
Here, we utilized human TNBC MDA-MB-468 and human cervical cancer HeLa cells to conduct an MTT-based dose-response analysis using Adriamycin and CFM compounds. […] The cell lysates from the control, untreated, and treated cells were analyzed by WB for expression of CARP-1, phospho-JNK1/2, phospho-H2AX, and poly ADP ribose polymerase (PARP) proteins. […]

As to `COc1cccc2c1C(=O)c1c(O)c3c(c(O)c1C2=O)C[C@@](O)(C(=O)CO)C[C@@H]3O[C@H]1C[C@H](N)[C@H](O)[C@H](C)O1` [Adriamycin, doxorubicin, reference compound], the “expression of CARP-1, phospho-JNK1/2, phospho-H2AX” value was “stimulated expression of CARP-1, phospho-JNK1/2, and phospho-H2AX in a time-dependent manner”.

Turning to `O=C1N(Cc2ccccc2Cl)c2ccccc2C12NN=C(c1cccc(Cl)c1)S2` (centres unmarked) [CFM-4.16], the “expression of CARP-1, phospho-JNK1/2, phospho-H2AX” value is “stimulated expression of CARP-1, phospho-JNK1/2, and phospho-H2AX in a time-dependent manner”.

(Values after article PMC6406907, “A H2AX–CARP-1 Interaction Regulates Apoptosis Signaling Following DNA Damage” (Cancers, 2019).)
